# According to the supplement of paper PMC10307832:
# What was measured:
# Assay in all cases: relative viability (nuclei count vs DMSO), 5 days (fraction); higher = more cells survive
# Erlotinib + Bortezomib = compound: C#Cc1cccc(Nc2ncnc3cc(OCCOC)c(OCCOC)cc23)c1 [Erlotinib] + CC(C)C[C@H](NC(=O)[C@H](Cc1ccccc1)NC(=O)c1cnccn1)B(O)O [Bortezomib] (partner 0.002 µM)
# Procedure, shortened: (§1)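 After 5 days of treatment, lung cancer cells in 1536-well plates were fixed and stained in a single step (final 0.05% Triton X-100, 1% formaldehyde, 1 ug/ml Hoechst) and their nuclei counted on 4× images. Treatment had been applied by pin tool the day after seeding as one drug alone or as a fixed anchor-drug dose with five library-drug doses (not always all listed) in √10 steps. Relative viability is the nuclei count of treated wells divided by that of vehicle wells, and values are medians of duplicate plates.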
# Erlotinib + OSI-027 = compound: C#Cc1cccc(Nc2ncnc3cc(OCCOC)c(OCCOC)cc23)c1 [Erlotinib] + COc1cccc2cc(-c3nc([C@H]4CC[C@H](C(=O)O)CC4)n4ncnc(N)c34)[nH]c12 [OSI-027] (partner 0.5 µM)
# Procedure, shortened: as §1
# Erlotinib + Pemetrexed = compound: C#Cc1cccc(Nc2ncnc3cc(OCCOC)c(OCCOC)cc23)c1 [Erlotinib] + Nc1nc2[nH]cc(CCc3ccc(C(=O)N[C@@H](CCC(=O)O)C(=O)O)cc3)c2c(=O)[nH]1 [Pemetrexed] (partner 0.2 µM)
# Procedure, shortened: as §1
# AT9283 + Luminespib = compound: O=C(Nc1c[nH]nc1-c1nc2ccc(CN3CCOCC3)cc2[nH]1)NC1CC1 [AT9283] + CCNC(=O)c1noc(-c2cc(C(C)C)c(O)cc2O)c1-c1ccc(CN2CCOCC2)cc1 [Luminespib] (partner 0.01 µM)
# Procedure, shortened: as §1
# AT9283 + Dasatinib = compound: O=C(Nc1c[nH]nc1-c1nc2ccc(CN3CCOCC3)cc2[nH]1)NC1CC1 [AT9283] + Cc1nc(Nc2ncc(C(=O)Nc3c(C)cccc3Cl)s2)cc(N2CCN(CCO)CC2)n1 [Dasatinib] (partner 0.075 µM)
# Procedure, shortened: as §1
Cell Line,relative viability (Erlotinib + Bortezomib; first compound 0.02 µM),relative viability (Erlotinib + Bortezomib; first compound 0.2 µM),relative viability (Erlotinib + Bortezomib; first compound 0.6325 µM),relative viability (Erlotinib + Bortezomib; first compound 2 µM),relative viability (Erlotinib + OSI-027; first compound 0.02 µM),relative viability (Erlotinib + OSI-027; first compound 0.2 µM),relative viability (Erlotinib + OSI-027; first compound 0.6325 µM),relative viability (Erlotinib + OSI-027; first compound 2 µM),relative viability (Erlotinib + Pemetrexed; first compound 0.02 µM),relative viability (Erlotinib + Pemetrexed; first compound 0.2 µM),relative viability (Erlotinib + Pemetrexed; first compound 0.6325 µM),relative viability (Erlotinib + Pemetrexed; first compound 2 µM),relative viability (AT9283 + Luminespib; first compound 0.003 µM),relative viability (AT9283 + Luminespib; first compound 0.03 µM),relative viability (AT9283 + Luminespib; first compound 0.09487 µM),relative viability (AT9283 + Luminespib; first compound 0.3 µM),relative viability (AT9283 + Dasatinib; first compound 0.003 µM),relative viability (AT9283 + Dasatinib; first compound 0.03 µM),relative viability (AT9283 + Dasatinib; first compound 0.09487 µM),relative viability (AT9283 + Dasatinib; first compound 0.3 µM)
NCI-H1792,0.897,0.958,1.18,0.783,0.728,0.561,0.586,0.362,1.05,0.629,1.02,0.51,0.264,0.454,0.382,0.229,0.894,0.886,0.748,0.538
NCI-H2170,,,,,0.687,0.748,0.566,0.403,0.275,0.261,0.242,0.237,0.821,0.574,0.509,0.176,0.446,0.427,0.16,0.133
NCI-H1395,,,,,0.677,0.712,0.615,0.629,0.807,0.959,0.868,0.794,0.639,0.649,0.397,0.418,0.434,0.424,0.292,0.287
NCI-H522,,,,,0.749,0.672,0.816,0.66,0.94,1.08,1.12,0.811,1.14,0.99,0.467,0.51,0.66,0.678,0.583,0.476
Calu-6,0.992,1.02,1.04,0.933,,,,,,,,,,,,,,,,
EBC-1,0.609,0.588,0.477,0.587,,,,,,,,,,,,,,,,
LK-2,,,,,0.202,0.211,0.21,0.192,0.259,0.278,0.318,0.235,0.195,0.19,0.176,0.206,0.228,0.197,0.135,0.142
NCI-H1623,,,,,0.398,0.366,0.297,0.256,,,,,0.466,0.559,0.437,0.37,0.567,0.51,0.615,0.324
SW 900,,,,,0.584,0.598,0.642,0.374,0.497,0.495,0.461,0.445,0.178,0.19,0.172,0.171,0.652,0.533,0.438,0.385
SK-MES-1,,,,,0.615,0.415,0.356,0.221,1.07,0.519,0.545,0.418,0.885,0.821,0.405,0.22,0.56,0.25,0.0729,0.0952
HCC-366,,1.08,1.1,1.06,0.969,0.805,0.468,0.438,0.176,0.197,0.127,0.136,,,,,0.619,0.566,0.104,0.053
NCI-H727,0.785,0.844,1,0.701,0.768,0.584,0.461,0.52,,,,,0.253,0.257,0.261,0.281,0.423,0.467,0.314,0.245
NCI-H2342,,,,,0.596,0.635,0.556,0.55,0.707,0.822,0.715,0.583,0.795,0.93,0.499,0.348,0.295,0.292,0.289,0.27
HCC-78,0.452,0.333,0.496,0.302,0.333,0.359,0.379,0.281,0.883,0.912,0.892,0.899,,,,,0.291,0.322,0.201,0.216
NCI-H1944,,,,,0.413,0.355,0.291,0.269,0.586,0.506,0.536,0.358,0.778,0.483,0.195,0.205,0.199,0.178,0.116,0.111
NCI-H1703,0.296,0.346,0.409,0.238,,,,,,,,,,,,,,,,
NCI-H1299,1.11,1.05,0.997,1,,,,,,,,,,,,,,,,
NCI-H358,,,,,0.82,0.458,0.407,0.152,0.176,0.156,0.147,0.164,0.4,0.147,0.166,0.129,0.147,0.1,0.0732,0.0691
NCI-H1648,,,,,0.251,0.283,0.246,0.298,0.759,0.707,0.629,0.66,,,,,,,,
NCI-H1793,,,,,0.281,0.225,0.235,0.156,1.01,0.441,0.825,0.52,0.194,0.184,0.179,0.136,0.405,0.39,0.256,0.138
